Converted amounts (≈) assume the structure as drawn. Structures can show the parent of a compound that is named as a salt. Where two headings read alike, the source gives them in different places.
Experiments:
P. mirabilis IID 994 = assay: In vitro antibacterial activity, MIC (standard strain); type: cell-based; details: Proteus mirabilis, IID994
S. agalactiae 4049 = assay: In vitro antibacterial activity, MIC (clinical isolates); type: cell-based; details: Streptococcus agalactiae; S. agalactiae 4049; 10^6 cells/ml; clinical isolate; read-out: MIC
S. faecalis 402 = assay: as above; type: cell-based; details: Enterococcus faecalis; S. faecalis 402; 10^6 cells/ml; clinical isolate; read-out: MIC
P. aeruginosa IFO 12689 = assay: In vitro antibacterial activity, MIC (standard strain); type: cell-based, Pseudomonas aeruginosa; details: Pseudomonas aeruginosa, IFO12689; P. aeruginosa IFO 12689; 10^6 cells/ml; standard strain; read-out: MIC
[1] = test system: Alcaligenes faecalis 0104002; assay: as above; type: cell-based; details: Alcaligenes faecalis, 0104002, Alcaligenes faecalis 0104002; 10^6 cells/ml; standard strain; read-out: MIC
B. fragilis 0558 = assay: as above; type: cell-based, Bacteroides fragilis; details: Bacteroides fragilis, 0558, B. fragilis 0558; 10^6 cells/ml; standard strain; read-out: MIC
S. agalactiae 4470 = assay: In vitro antibacterial activity, MIC (clinical isolates); type: cell-based; details: Streptococcus agalactiae; S. agalactiae 4470; 10^6 cells/ml; clinical isolate; read-out: MIC
[2] = test system: Proteus vulgaris IFO 3167; assay: In vitro antibacterial activity, MIC (standard strain); type: cell-based; details: IFO3167
[3] = test system: Streptococcus pyogenes S-8; assay: as above; type: cell-based; details: S8; Streptococcus pyogenes S-8; 10^6 cells/ml; standard strain; read-out: MIC
E. coli ATCC 10536 = assay: as above; type: cell-based; details: Escherichia coli, ATCC10536
S. pneumoniae 3227 = assay: In vitro antibacterial activity, MIC (clinical isolates); type: cell-based; details: Streptococcus pneumoniae; S. pneumoniae 3227; 10^6 cells/ml; clinical isolate; read-out: MIC
[4] = test system: Morganella morganii IID 602; assay: In vitro antibacterial activity, MIC (standard strain); type: cell-based; details: IID602; Morganella morganii IID 602; 10^6 cells/ml; standard strain; read-out: MIC
S. pyogenes IID 692 = assay: as above; type: cell-based; details: Streptococcus pyogenes, IID692; S. pyogenes IID 692; 10^6 cells/ml; standard strain; read-out: MIC
[5] = test system: Staphylococcus aureus 209 P; assay: as above; type: cell-based
S. marcescens GN 7577 = assay: as above; type: cell-based; details: Serratia marcescens, GN7577; S. marcescens GN 7577; 10^6 cells/ml; standard strain; read-out: MIC
S. pneumoniae 2950 = assay: In vitro antibacterial activity, MIC (clinical isolates); type: cell-based; details: Streptococcus pneumoniae; S. pneumoniae 2950; 10^6 cells/ml; clinical isolate; read-out: MIC
S. pneumoniae 2054 = assay: as above; type: cell-based; details: Streptococcus pneumoniae; S. pneumoniae 2054; 10^6 cells/ml; clinical isolate; read-out: MIC
[6] = test system: Yersinia enterocolitica IID 981; assay: In vitro antibacterial activity, MIC (standard strain); type: cell-based; details: IID981; Yersinia enterocolitica IID 981; 10^6 cells/ml; standard strain; read-out: MIC
S. pyogenes 3130 = assay: In vitro antibacterial activity, MIC (clinical isolates); type: cell-based; details: Streptococcus pyogenes, read-out: MIC
E. coli ML 4707 = assay: In vitro antibacterial activity, MIC (standard strain); type: cell-based; details: Escherichia coli, ML4707; E. coli ML 4707; 10^6 cells/ml; standard strain; read-out: MIC
S. agalactiae 4342 = assay: In vitro antibacterial activity, MIC (clinical isolates); type: cell-based; details: Streptococcus agalactiae; S. agalactiae 4342; 10^6 cells/ml; clinical isolate; read-out: MIC
[7] = test system: Escherichia coli NIHJ JC-2; assay: In vitro antibacterial activity, MIC (standard strain); type: cell-based; details: Escherichia coli, NIHJJC2, Escherichia coli NIHJ JC-2; 10^6 cells/ml; standard strain; read-out: MIC
[8] = test system: Serratia marcescens IID 618; assay: as above; type: cell-based; details: Serratia marcescens, IID618, Serratia marcescens IID 618; 10^6 cells/ml; standard strain; read-out: MIC
S. pyogenes 3102 = assay: In vitro antibacterial activity, MIC (clinical isolates); type: cell-based; details: Streptococcus pyogenes; S. pyogenes 3102; 10^6 cells/ml; clinical isolate; read-out: MIC
S. agalactiae 4368 = assay: as above; type: cell-based; details: Streptococcus agalactiae; S. agalactiae 4368; 10^6 cells/ml; clinical isolate; read-out: MIC
[9] = test system: Citrobacter freundii IID 976; assay: In vitro antibacterial activity, MIC (standard strain); type: cell-based; details: IID976; Citrobacter freundii IID 976; 10^6 cells/ml; standard strain; read-out: MIC
[10] = test system: Clostridium perfringens KYA 13123; assay: microbe, parasite or virus in culture; type: cell-based; details: KYA13123
S. pyogenes 4340 = assay: In vitro antibacterial activity, MIC (clinical isolates); type: cell-based; details: Streptococcus pyogenes; S. pyogenes 4340; 10^6 cells/ml; clinical isolate; read-out: MIC
K. pneumoniae 1-220S = assay: In vitro antibacterial activity, MIC (standard strain); type: cell-based; details: Klebsiella pneumoniae, 1220S; K. pneumoniae 1-220S; 10^6 cells/ml; standard strain; read-out: MIC
S. pneumoniae 15 = assay: In vitro antibacterial activity, MIC (clinical isolates); type: cell-based; details: Streptococcus pneumoniae; S. pneumoniae 15; 10^6 cells/ml; clinical isolate; read-out: MIC
[11] = test system: Acinetobacter anitratus IID 876; assay: In vitro antibacterial activity, MIC (standard strain); type: cell-based; details: Acinetobacter calcoaceticus, IID876, Acinetobacter anitratus IID 876; 10^6 cells/ml; standard strain; read-out: MIC
[12] = P. mirabilis IID 994, 10^6 cells/ml, standard strain, read-out: MIC
[13] = Proteus vulgaris IFO 3167, 10^6 cells/ml, standard strain, read-out: MIC
[14] = E. coli ATCC 10536, 10^6 cells/ml, standard strain, read-out: MIC
[15] = Staphylococcus aureus 209 P, 10^6 cells/ml, standard strain, read-out: MIC

SMILES	MIC (S. agalactiae 4049) [µg/mL]	MIC (S. faecalis 402) [µg/mL]	MIC (P. aeruginosa IFO 12689) [µg/mL]	MIC [1] [µg/mL]	MIC (B. fragilis 0558) [µg/mL]	MIC (S. agalactiae 4470) [µg/mL]	MIC [3] [µg/mL]	MIC (S. pneumoniae 3227) [µg/mL]	MIC [4] [µg/mL]	MIC (S. pyogenes IID 692) [µg/mL]	MIC (S. marcescens GN 7577) [µg/mL]	MIC (S. pneumoniae 2950) [µg/mL]	MIC (S. pneumoniae 2054) [µg/mL]	MIC [6] [µg/mL]	MIC (S. pyogenes 3130) [µg/mL]	MIC (E. coli ML 4707) [µg/mL]	MIC (S. agalactiae 4342) [µg/mL]	MIC [7] [µg/mL]	MIC [8] [µg/mL]	MIC (S. pyogenes 3102) [µg/mL]	further results
NCC1CCN(c2c(F)cc3c(=O)c(C(=O)O)cn(C4CC4)c3c2Br)C1 (stereo not drawn) [Example 15, 7-(3-Aminomethyl-l-pyrrolidinyl)-8-bromo-l-cyclopropyl-6-fluoro-1,4-dihydro-4-oxo-3-quinolinecarboxylic acid]	0.05 (≈ 0.118 µM)	0.2 (≈ 0.471 µM)	0.78 (≈ 1.84 µM)	0.2 (≈ 0.471 µM)	≤ 0.05	0.05 (≈ 0.118 µM)	0.05 (≈ 0.118 µM)	0.05 (≈ 0.118 µM)	0.1 (≈ 0.236 µM)	0.05 (≈ 0.118 µM)	0.78 (≈ 1.84 µM)	0.05 (≈ 0.118 µM)	0.1 (≈ 0.236 µM)	0.05 (≈ 0.118 µM)	0.05 (≈ 0.118 µM)	0.025 (≈ 0.0589 µM)	0.1 (≈ 0.236 µM)	≤ 0.0063	0.1 (≈ 0.236 µM)	0.05 (≈ 0.118 µM)	MIC (P. mirabilis IID 994): 0.0125 µg/mL (≈ 0.0295 µM); MIC ([2]; Proteus vulgaris): 0.0125 µg/mL (≈ 0.0295 µM); MIC (E. coli ATCC 10536): 0.0125 µg/mL (≈ 0.0295 µM); MIC ([5]; Staphylococcus aureus, 209P): 0.0125 µg/mL (≈ 0.0295 µM); MIC (S. agalactiae 4368): 0.05 µg/mL (≈ 0.118 µM); MIC [9]: 0.025 µg/mL (≈ 0.0589 µM); MIC [10]: 0.1 µg/mL (≈ 0.236 µM); MIC (S. pyogenes 4340): 0.05 µg/mL (≈ 0.118 µM); MIC (K. pneumoniae 1-220S): 0.05 µg/mL (≈ 0.118 µM); MIC (S. pneumoniae 15): 0.05 µg/mL (≈ 0.118 µM); MIC [11]: 0.05 µg/mL (≈ 0.118 µM)
CNCC1CCN(c2c(F)cc3c(=O)c(C(=O)O)cn(C4CC4)c3c2Br)C1 (stereo not drawn) [Example 16, 8-Bromo-1-cyclopropyl-6-fluoro-1,4-dihydro-7-(3-methylaminomethyl-l-pyrrolidinyl)-4-oxo-3-quinolinecarboxylic acid]	0.05 (≈ 0.114 µM)	0.1 (≈ 0.228 µM)	1.56 (≈ 3.56 µM)	0.39 (≈ 0.89 µM)	0.1 (≈ 0.228 µM)	0.05 (≈ 0.114 µM)	0.05 (≈ 0.114 µM)	0.05 (≈ 0.114 µM)	0.1 (≈ 0.228 µM)	0.1 (≈ 0.228 µM)	0.78 (≈ 1.78 µM)	0.05 (≈ 0.114 µM)	0.05 (≈ 0.114 µM)	0.1 (≈ 0.228 µM)	0.05 (≈ 0.114 µM)	0.025 (≈ 0.057 µM)	0.05 (≈ 0.114 µM)	0.0125 (≈ 0.0285 µM)	0.1 (≈ 0.228 µM)	0.05 (≈ 0.114 µM)	MIC (P. mirabilis IID 994; [12]): 0.025 µg/mL (≈ 0.057 µM); MIC [2, 13]: 0.025 µg/mL (≈ 0.057 µM); MIC (E. coli ATCC 10536; [14]): 0.025 µg/mL (≈ 0.057 µM); MIC [5, 15]: 0.0125 µg/mL (≈ 0.0285 µM); MIC (S. agalactiae 4368): 0.05 µg/mL (≈ 0.114 µM); MIC [9]: 0.05 µg/mL (≈ 0.114 µM); MIC [10]: 0.1 µg/mL (≈ 0.228 µM); MIC (S. pyogenes 4340): 0.05 µg/mL (≈ 0.114 µM); MIC (K. pneumoniae 1-220S): 0.1 µg/mL (≈ 0.228 µM); MIC (S. pneumoniae 15): 0.05 µg/mL (≈ 0.114 µM); MIC [11]: 0.05 µg/mL (≈ 0.114 µM)
CCNCC1CCN(c2c(F)cc3c(=O)c(C(=O)O)cn(C4CC4)c3c2F)C1 (stereo not drawn) [Example 2, l-Cyclopropyl-7-(3-ethylaminomethyl-l-pyrrolidinyl)-6,8-difluoro-l,4-dihydro-4-oxo-3-quinolinecarboxylic acid hydrochloride]	0.1	0.2	1.56	0.1	0.78	0.1	0.1	0.1	0.1	0.2	1.56	0.1	0.1	0.1	0.05	0.025	0.1	0.025	0.1	0.05	MIC (P. mirabilis IID 994; [12]): 0.05 µg/mL; MIC [2, 13]: 0.025 µg/mL; MIC (E. coli ATCC 10536; [14]): 0.025 µg/mL; MIC [5, 15]: 0.025 µg/mL; MIC (S. agalactiae 4368): 0.1 µg/mL; MIC [9]: 0.05 µg/mL; MIC [10]: 0.39 µg/mL; MIC (S. pyogenes 4340): 0.1 µg/mL; MIC (K. pneumoniae 1-220S): 0.1 µg/mL; MIC (S. pneumoniae 15): 0.05 µg/mL; MIC [11]: 0.05 µg/mL
CN(C)CC1CCN(c2c(F)cc3c(=O)c(C(=O)O)cn(C4CC4)c3c2F)C1 (centres unmarked) [Example 21, 1-Cyclopropyl-6,8-difluoro-1,4-dihydro-7-(3-dimethylaminomethyl-1-pyrrolidinyl)-4-oxo-3-quinolinecarboxylic acid]	0.2 (≈ 0.511 µM)	0.2 (≈ 0.511 µM)	3.13 (≈ 8 µM)	0.78 (≈ 1.99 µM)	0.2 (≈ 0.511 µM)	0.2 (≈ 0.511 µM)	0.1 (≈ 0.255 µM)	0.2 (≈ 0.511 µM)	0.2 (≈ 0.511 µM)	0.2 (≈ 0.511 µM)	1.56 (≈ 3.99 µM)	0.1 (≈ 0.255 µM)	0.2 (≈ 0.511 µM)	0.1 (≈ 0.255 µM)	0.1 (≈ 0.255 µM)	0.05 (≈ 0.128 µM)	0.2 (≈ 0.511 µM)	0.05 (≈ 0.128 µM)	0.2 (≈ 0.511 µM)	0.1 (≈ 0.255 µM)	MIC (P. mirabilis IID 994; [12]): 0.1 µg/mL (≈ 0.255 µM); MIC [2, 13]: 0.05 µg/mL (≈ 0.128 µM); MIC (E. coli ATCC 10536; [14]): 0.05 µg/mL (≈ 0.128 µM); MIC [5, 15]: 0.05 µg/mL (≈ 0.128 µM); MIC (S. agalactiae 4368): 0.2 µg/mL (≈ 0.511 µM); MIC [9]: 0.05 µg/mL (≈ 0.128 µM); MIC [10]: 0.2 µg/mL (≈ 0.511 µM); MIC (S. pyogenes 4340): 0.1 µg/mL (≈ 0.255 µM); MIC (K. pneumoniae 1-220S): 0.2 µg/mL (≈ 0.511 µM); MIC (S. pneumoniae 15): 0.2 µg/mL (≈ 0.511 µM); MIC [11]: 0.05 µg/mL (≈ 0.128 µM)
CCCNCC1CCN(c2c(F)cc3c(=O)c(C(=O)O)cn(C4CC4)c3c2F)C1 (stereo not drawn) [Example 10, 1-Cyclopropyl-6,8-difluoro-1,4-dihydro-4-oxo-7-(3-n-propylaminomethyl-l-pyrrolidinyl)-3-quinolinecarboxylic acid hydrochloride]	0.78	0.39	3.13	0.78	0.78	0.39	0.39	0.2	0.025	0.39	3.13	0.39	0.78	0.1	0.2	0.2	0.2	0.05	0.2	0.2	MIC (P. mirabilis IID 994; [12]): 0.025 µg/mL; MIC [2, 13]: 0.025 µg/mL; MIC (E. coli ATCC 10536; [14]): 0.1 µg/mL; MIC [5, 15]: 0.05 µg/mL; MIC (S. agalactiae 4368): 0.39 µg/mL; MIC [9]: 0.05 µg/mL; MIC [10]: 0.39 µg/mL; MIC (S. pyogenes 4340): 0.2 µg/mL; MIC (K. pneumoniae 1-220S): 0.2 µg/mL; MIC (S. pneumoniae 15): 0.39 µg/mL; MIC [11]: 0.05 µg/mL
